The text below walks through data of patent publication US11091781B2, “Carbon fixation systems and methods” (priority 2015, dated 2021).

Data set [1] deals with H16 and ROS-resistant BC4 strains of R. eutropha. Nature of the data set: Spot assay of ROS tolerance with paraquat as ROS-inducer. The class given is cell-based, Ralstonia eutropha. The note with it: BC4 vs wild-type H16, FIG. 26. As for the experimental part:
(§1) The procedure for spot assays was performed by diluting 100 μL of culture grown under different conditions by 1:10 in fresh minimal medium, which was vortexed. Three to four serial 10-fold dilutions were made and 2 μL of each dilution was spotted on rich broth agar plates and allowed to dry. Plates were typically grown for 2 days at 30° C. before imaging. The half maximal inhibitory concentration (IC50) was estimated based on the comparison at 1/100 dilution. The areas of colonies at certain conditions were then compared with that of control samples.
A ROS-resistant variant of R. eutropha, evolved from a reactor including a stainless steel CoPi water-splitting electrode pair after 11 consecutive days of operation at an applied voltage potential of 2.3 V with a H2O2 generation rate of ˜0.6 μM/min. […] However, there was minimal difference noted in ηelec for the current reactor systems using the Co-P|CoPi electrode pairs, confirming minimal concentrations of ROS in the reactors. Of course, it should be understood that BC4 may be used in any reactor system, and may also be beneficial for use in helping systems achieve a high ηelec where ROS are present in larger concentrations.

Data set [2] deals with R. eutropha. Nature of the data set: Spot assay of R. eutropha in the presence of Co^2+. The class given is cell-based, Ralstonia eutropha. Particulars: estimated by comparison at 1/100 dilution, FIG. 18, read-out: half maximal inhibitory concentration, IC50 (concentration of Co^2+ toxic to R. eutropha). The method, then:
as §1
FIG. 17 presents, cyclic voltammograms of Co^2+ in the phosphate buffer (pH=7), a pre-wave to the catalytic water-splitting current corresponds to the oxidation of Co^2+ to Co^3+, which drives deposition of the catalyst. […] As noted previously, the self-healing property of CoPi alloy is derived from this interplay of the potential at which OER occurs vs. the potential at which the catalyst deposits. In concert, the Co—P and CoPi catalysts maintain extremely low concentrations of Co^2+ in solution through activity derived from the self-healing process. Inductively coupled plasma mass spectrometry (ICP-MS) analysis of a Co-P|CoPi catalysts system (Eappl=2.2 V) confirm that sub-μM levels of Co^2+ are present in solution after 24 h. […]

Data set [3] concerns the target membrane-bound hydrogenases in R. eutropha (Cupriavidus necator, UniProt P31891). Particulars: H2 as substrate; cited from earlier work.
The test system of data set [4] is R. eutropha. The class given is cell-based, Ralstonia eutropha. The note with it: spot assay at different isopropanol concentrations, FIG. 25. The method, then:
as §1
FIG. 25 is a photograph of cell cultures taken for different isopropanol concentration.

membrane-bound hydrogenases in R. eutropha, sequence (P31891 1-603 limits assumed): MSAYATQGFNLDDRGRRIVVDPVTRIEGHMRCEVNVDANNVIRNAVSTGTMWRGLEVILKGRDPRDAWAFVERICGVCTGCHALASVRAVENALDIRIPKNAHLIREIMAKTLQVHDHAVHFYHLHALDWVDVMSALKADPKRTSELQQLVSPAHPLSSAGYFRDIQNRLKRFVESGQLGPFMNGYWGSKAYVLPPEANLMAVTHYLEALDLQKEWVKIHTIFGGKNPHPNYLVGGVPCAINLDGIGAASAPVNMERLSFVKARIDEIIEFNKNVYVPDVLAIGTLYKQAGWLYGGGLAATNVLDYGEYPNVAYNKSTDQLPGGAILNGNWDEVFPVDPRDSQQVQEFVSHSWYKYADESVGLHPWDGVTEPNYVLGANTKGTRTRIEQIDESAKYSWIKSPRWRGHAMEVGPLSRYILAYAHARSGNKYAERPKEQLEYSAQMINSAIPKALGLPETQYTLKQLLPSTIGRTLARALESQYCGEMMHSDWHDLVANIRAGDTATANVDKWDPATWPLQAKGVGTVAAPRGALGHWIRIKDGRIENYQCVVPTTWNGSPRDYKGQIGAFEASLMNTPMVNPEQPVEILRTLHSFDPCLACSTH
membrane-bound hydrogenases in R. eutropha, sequence (P31892 44-360 partner): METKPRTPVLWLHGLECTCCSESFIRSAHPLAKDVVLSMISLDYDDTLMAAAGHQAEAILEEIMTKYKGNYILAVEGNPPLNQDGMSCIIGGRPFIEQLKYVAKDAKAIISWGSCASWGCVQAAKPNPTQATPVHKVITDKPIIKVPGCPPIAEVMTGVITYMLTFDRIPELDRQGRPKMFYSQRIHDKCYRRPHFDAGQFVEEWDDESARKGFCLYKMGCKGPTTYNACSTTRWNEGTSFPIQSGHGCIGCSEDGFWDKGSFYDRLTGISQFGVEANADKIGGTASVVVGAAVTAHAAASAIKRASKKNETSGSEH

Regarding `C[n+]1ccc(-c2cc[n+](C)cc2)cc1` [paraquat], the “IC50 of paraquat for BC4 compared with wild type” value in data set [1] is reported as “almost one order of magnitude higher than that of wild type”.

As to `[Co+2]` [Co^2+], in the data set with R. eutropha [2], the IC50 is around 25 µM.

In the case of `[HH]` [H2, hydrogen], in data set [3], the Michaelis constant entry is listed as “about 6 μM”.

As to `CC(C)O` [isopropanol], the “tolerance of R. eutropha towards isopropanol” value in the data set with R. eutropha [4] was “demonstrates tolerance”.
